Patent publication US12060347B2 (BRISTOL-MYERS SQUIBB COMPANY, priority 2016, dated 2024)

Molecular target: T1, human PAR4 (Homo sapiens, UniProt Q96RI0)
T1 construct: expressed in transfected cells; host or cells: HEK293 PAR4 Clone 1.2A (BMS Arctic ID 383940)
T1 sequence (Q96RI0 18-385): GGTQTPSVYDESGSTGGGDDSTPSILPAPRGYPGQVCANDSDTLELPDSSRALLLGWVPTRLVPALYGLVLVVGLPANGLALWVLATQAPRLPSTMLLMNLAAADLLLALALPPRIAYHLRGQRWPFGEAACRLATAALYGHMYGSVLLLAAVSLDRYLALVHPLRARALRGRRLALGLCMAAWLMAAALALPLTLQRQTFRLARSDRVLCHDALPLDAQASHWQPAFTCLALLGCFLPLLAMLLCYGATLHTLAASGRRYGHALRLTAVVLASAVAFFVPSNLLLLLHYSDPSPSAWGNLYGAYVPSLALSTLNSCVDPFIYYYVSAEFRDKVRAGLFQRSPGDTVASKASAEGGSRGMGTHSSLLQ
Assay: PAR4 FLIPR assay: antagonism of agonist-peptide-induced calcium mobilization in PAR4-expressing HEK293 cells
Type: cell-based
Settings: H-Ala-Phe(4-F)-[…]NH2-induced intracellular calcium mobilization, 11-point curves

Compound	IC50 [nM]
COc1cc(CCO)c2nc(-c3cc(C)cc4nc(OC)cnc34)sc2c1 [Example 641, 2-(6-methoxy-2-(2-methoxy-7-methylquinoxalin-5-yl)benzo[d]thiazol-4-yl)ethanol]	250
COc1cc(C(O)c2cccc(C(F)(F)F)c2)c2nc(-c3cc(C)cc4nc(OC)cnc34)sc2c1 (stereo not shown) [Example 642, (6-methoxy-2-(2-methoxy-7-methylquinoxalin-5-yl)benzo[d]thiazol-4-yl)(3-(trifluoromethyl)phenyl)methanol]	4.6
COc1cc(C(O)c2ccccc2C(C)C)c2nc(-c3cc(C)cc4nc(OC)cnc34)sc2c1 (stereo not shown) [Example 643, (2-isopropylphenyl)(6-methoxy-2-(2-methoxy-7-methylquinoxalin-5-yl)benzo[d]thiazol-4-yl)methanol]	5.3
CCOC(=O)C1(C(O)c2cc(OC)cc3sc(-c4cc(C)cc5nc(OC)cnc45)nc23)CCC1 (stereo not shown) [Example 644, Ethyl 1-(hydroxy(6-methoxy-2-(2-methoxy-7-methylquinoxalin-5-yl)benzo[d]thiazol-4-yl)methyl)cyclobutanecarboxylate]	21
COc1cnc2c(-c3nc4cc(F)c(O[C@@H](C)[C@@H](C)OC(=O)Nc5cnc(C)nc5)cc4s3)cc(Cl)cc2c1 [Example 645, (2R,3S)-3-((2-(6-chloro-3-methoxyquinolin-8-yl)-5-fluorobenzo[d]thiazol-6-yl)oxy)butan-2-yl (2-methylpyrimidin-5-yl)carbamate]	4.9
COc1cc(C(O)C2(CO)CCC2)c2nc(-c3cc(C)cc4nc(OC)cnc34)sc2c1 (stereo not shown) [Example 646, (1-(hydroxymethyl)cyclobutyl)(6-methoxy-2-(2-methoxy-7-methylquinoxalin-5-yl)benzo[d]thiazol-4-yl)methanol]	3.8
CCc1cnc2c(-c3nc4cc(F)c(O[C@@H](C)[C@@H](C)OC(=O)Nc5cnc(C)nc5)cc4s3)cc(Cl)cc2c1 [Example 647, (2R,3S)-3-((2-(6-chloro-3-ethylquinolin-8-yl)-5-fluorobenzo[d]thiazol-6-yl)oxy)butan-2-yl(2-methylpyrimidin-5-yl)carbamate]	19
COc1cnc2c(-c3nc4cc(F)c(O[C@@H](C)[C@@H](C)OC(=O)Nc5cnc(C)nc5)cc4s3)cc(C)cc2c1 [Example 648, (2R,3S)-3-((5-fluoro-2-(3-methoxy-6-methylquinolin-8-yl)benzo[d]thiazol-6-yl)oxy)butan-2-yl (2-methylpyrimidin-5-yl)carbamate]	3
CCOc1cnc2c(-c3nc4cc(F)c(O[C@@H](C)[C@@H](C)OC(=O)Nc5cnc(C)nc5)cc4s3)cc(Cl)cc2c1 [Example 649, (2R,3S)-3-((2-(6-chloro-3-ethoxyquinolin-8-yl)-5-fluorobenzo[d]thiazol-6-yl)oxy)butan-2-yl (2-methylpyrimidin-5-yl)carbamate]	7.4
Cc1ncc(NC(=O)O[C@H](C)[C@H](C)Oc2cc3sc(-c4cc(Cl)cc5cc(OC(F)F)cnc45)nc3cc2F)cn1 [Example 650, (2R,3S)-3-((2-(6-chloro-3-(difluoromethoxy)quinolin-8-yl)-5-fluorobenzo[d]thiazol-6-yl)oxy)butan-2-yl (2-methylpyrimidin-5-yl)carbamate]	5.6
Cc1ncc(NC(=O)O[C@H](C)[C@H](C)Oc2cc3sc(-c4cc(Cl)cc5cc(OCC(F)F)cnc45)nc3cc2F)cn1 [Example 651, (2R,3S)-3-((2-(6-chloro-3-(2,2-difluoroethoxy)quinolin-8-yl)-5-fluorobenzo[d]thiazol-6-yl)oxy)butan-2-yl (2-methylpyrimidin-5-yl)carbamate]	4.3
CNc1cnc2c(-c3nc4cc(F)c(O[C@@H](C)[C@@H](C)OC(=O)Nc5cnc(C)nc5)cc4s3)cc(Cl)cc2c1 [Example 652, (2R,3S)-3-((2-(6-chloro-3-(methylamino)quinolin-8-yl)-5-fluorobenzo[d]thiazol-6-yl)oxy)butan-2-yl (2-methylpyrimidin-5-yl)carbamate]	11
COc1cnc2c(-c3nc4cc(F)c(O[C@@H](C)[C@@H](C)OC(=O)Nc5cnc(C)nc5)cc4s3)cc(C(F)F)cc2c1 [Example 653, (2R,3S)-3-((2-(6-(difluoromethyl)-3-methoxyquinolin-8-yl)-5-fluorobenzo[d]thiazol-6-yl)oxy)butan-2-yl (2-methylpyrimidin-5-yl)carbamate]	0.83
COc1cnc2c(-c3nc4cc(F)c(O[C@@H](C)[C@@H](C)OC(=O)Nc5cnc(C)nc5)cc4s3)cc(CF)cc2c1 [Example 654, (2R,3S)-3-((5-fluoro-2-(6-(fluoromethyl)-3-methoxyquinolin-8-yl)benzo[d]thiazol-6-yl)oxy)butan-2-yl (2-methylpyrimidin-5-yl)carbamate]	1
COc1cnc2c(-c3nc4cc(F)c(O[C@@H](C)[C@@H](C)OC(=O)Nc5cnc(C)nc5)cc4s3)cc(C#N)cc2c1 [Example 655, (2R,3S)-3-((2-(6-cyano-3-methoxyquinolin-8-yl)-5-fluorobenzo[d]thiazol-6-yl)oxy)butan-2-yl (2-methylpyrimidin-5-yl)carbamate]	1.1
COc1cnc2c(-c3nc4c(C(O)C5(C(F)(F)F)CCC5)cc(OC)cc4s3)cc(Cl)cc2c1 (stereo not shown) [Example 656, (2-(6-chloro-3-methoxyquinolin-8-yl)-6-methoxybenzo[d]thiazol-4-yl)(1-(trifluoromethyl)cyclobutyl)methanol]	2.4

Compound	IC50 [nM]
COc1cnc2c(-c3nc4cc(F)c(O[C@@H](C)[C@@H](C)OC(=O)Nc5cnc(C)nc5)cc4s3)cc(OC)cc2c1 [Example 657, (2R,3S)-3-((2-(3,6-dimethoxyquinolin-8-yl)-5-fluorobenzo[d]thiazol-6-yl)oxy)butan-2-yl (2-methylpyrimidin-5-yl)carbamate]	1.1
COc1cnc2c(-c3nc4c(C(O)C(C)(C)C)cc(OCCOC(=O)Nc5ccncc5)cc4s3)cc(C)cc2n1 (stereo not shown) [Example 658, 2-((4-(1-hydroxy-2,2-dimethylpropyl)-2-(2-methoxy-7-methylquinoxalin-5-yl)benzo[d]thiazol-6-yl)oxy)ethyl pyridin-4-ylcarbamate]	3
Cc1cc(-c2nc3cc(F)c(O[C@@H](C)[C@@H](C)OC(=O)Nc4cnc(C)nc4)cc3s2)c2ncc(OC(F)F)cc2c1 [Example 659, (2R,3S)-3((2-(3-(difluoromethoxy)-6-methylquinolin-8-yl)-5-fluorobenzo[d]thiazol-6-yl)oxy)butan-2-yl (2-methylpyrimidin-5-yl)carbamate]	2.1
CCOc1cnc2c(-c3nc4cc(F)c(O[C@@H](C)[C@@H](C)OC(=O)Nc5cnc(C)nc5)cc4s3)cc(C)cc2c1 [Example 660, (2R,3S)-3-((2-(3-ethoxy-6-methylquinolin-8-yl)-5-fluorobenzo[d]thiazol-6-yl)oxy)butan-2-yl (2-methylpyrimidin-5-yl)carbamate]	2
CCOc1cnc2c(-c3cc4ccccc4o3)cc(C)cc2n1 [Example 661, 5-(benzofuran-2-yl)-2-ethoxy-7-methylquinoxaline]	55
COc1ccc(OC(=O)NCCOc2cc(C)c3nc(-c4cc(C)cc5nc(OC)cnc45)sc3n2)cc1 [Example 662, 4-methoxyphenyl (2-((2-(2-methoxy-7-methylquinoxalin-5-yl)-7-methylthiazolo[5,4-b]pyridin-5-yl)oxy)ethyl)carbamate]	77
COc1cc(C(O)C2CCOCC2)c2nc(-c3cc(C)cc4nc(OC)cnc34)sc2c1 (stereo not shown) [Example 663, (6-methoxy-2-(2-methoxy-7-methylquinoxalin-5-yl)benzo[d]thiazol-4-yl)(tetrahydro-2H-pyran-4-yl)methanol]	7
COc1cc(C(O)C2(c3ccccc3)CCC2)c2nc(-c3cc(C)cc4nc(OC)cnc34)sc2c1 (stereo not shown) [Example 665, (6-methoxy-2-(2-methoxy-7-methylquinoxalin-5-yl)benzo[d]thiazol-4-yl)(1-phenylcyclobutyl)methanol]	1.7
COc1cc(C(O)C2(OC)CCC2)c2nc(-c3cc(C)cc4nc(OC)cnc34)sc2c1 (stereo not shown) [Example 666, (6-methoxy-2-(2-methoxy-7-methylquinoxalin-5-yl)benzo[d]thiazol-4-yl)(1-methoxycyclobutyl)methanol]	1.1
COc1cc(C(O)C2(C(F)(F)F)CC2)c2nc(-c3cc(C)cc4nc(OC)cnc34)sc2c1 (stereo not shown) [Example 667, (6-methoxy-2-(2-methoxy-7-methylquinoxalin-5-yl)benzo[d]thiazol-4-yl)(1-(trifluoromethyl)cyclopropyl)methanol]	5.6
COc1cc(C(O)C2(c3ccccc3)CC2)c2nc(-c3cc(C)cc4nc(OC)cnc34)sc2c1 (stereo not shown) [Example 668, (6-methoxy-2-(2-methoxy-7-methylquinoxalin-5-yl)benzo[d]thiazol-4-yl)(1-phenylcyclopropyl)methanol]	7.3
COc1cc(C(O)C2(C(F)(F)F)CCC2)c2nc(-c3cc(C)cc4nc(OC)cnc34)sc2c1 (stereo not shown) [Example 669]	2.3
COc1cc(C(O)C2(C)CC2)c2nc(-c3cc(C)cc4nc(OC)cnc34)sc2c1 (stereo not shown) [Example 671, (6-methoxy-2-(2-methoxy-7-methylquinoxalin-5-yl)benzo[d]thiazol-4-yl)(1-methylcyclopropyl)methanol]	1.9
COc1cc(C(O)C2(C)CCCCC2)c2nc(-c3cc(C)cc4nc(OC)cnc34)sc2c1 (stereo not shown) [Example 672, (6-methoxy-2-(2-methoxy-7-methylquinoxalin-5-yl)benzo[d]thiazol-4-yl)(1-methylcyclohexyl)methanol]	1.9
COc1cc(C(O)c2nccs2)c2nc(-c3cc(C)cc4nc(OC)cnc34)sc2c1 (stereo not shown) [Example 673, (6-methoxy-2-(2-methoxy-7-methylquinoxalin-5-yl)benzo[d]thiazol-4-yl)(thiazol-2-yl)methanol]	39
